Measured values reported in PubChem BioAssay AID1963827 (Molecular Pharmacology Branch, DTP, NCI, 2024).

Tested on: 994946-033-R-J1-PDC complex spheroid viability
Assay: Anticancer human tumor 994946-033-R-J1-PDC patient-derived melanoma cell line growth inhibition [POLQ]
Details: for IC50: curve of first compound; for viability, T/C: stronger effect = lower value
Outline: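 Patient-derived tumour cells were co-cultured with HUVEC and mesenchymal stem cells as multicellular spheroids at 37 °C. They were treated with POLQ inhibitors (novobiocin, ART-558, RP6685) alone or combined with other agents. Top concentrations were at or near clinical Cmax (otherwise 10 microM; SN-38 at 1 microM), decreasing in half-log steps.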

[1] = second compound 0.0316 µM, first compound 0.0316 µM
[2] = second compound 0.0316 µM, first compound 0.1 µM
[3] = second compound 0.1 µM, first compound 0.0316 µM
[4] = second compound 0.1 µM, first compound 0.1 µM
[5] = second compound 0.316 µM, first compound 0.0316 µM
[6] = second compound 0.316 µM, first compound 0.1 µM
[7] = second compound 1 µM, first compound 0.0316 µM
[8] = second compound 1 µM, first compound 0.1 µM
[9] = second compound 3.16 µM, first compound 0.0316 µM
[10] = second compound 3.16 µM, first compound 0.1 µM
[11] = second compound 10 µM, first compound 0.0316 µM
[12] = second compound 10 µM, first compound 0.1 µM
[13] = second compound 0.0316 µM, first compound 0.316 µM
[14] = second compound 0.0316 µM, first compound 1 µM
[15] = second compound 0.0316 µM, first compound 3.16 µM
[16] = second compound 0.0316 µM, first compound 10 µM
[17] = second compound 0.1 µM, first compound 0.316 µM
[18] = second compound 0.1 µM, first compound 1 µM
[19] = second compound 0.1 µM, first compound 3.16 µM
[20] = second compound 0.1 µM, first compound 10 µM
[21] = second compound 0.316 µM, first compound 0.316 µM
[22] = second compound 0.316 µM, first compound 1 µM
[23] = second compound 0.316 µM, first compound 3.16 µM
[24] = second compound 0.316 µM, first compound 10 µM
[25] = second compound 1 µM, first compound 0.316 µM
[26] = second compound 1 µM, first compound 1 µM
[27] = second compound 1 µM, first compound 3.16 µM
[28] = second compound 1 µM, first compound 10 µM
[29] = second compound 3.16 µM, first compound 0.316 µM
[30] = second compound 3.16 µM, first compound 1 µM
[31] = second compound 3.16 µM, first compound 3.16 µM
[32] = second compound 3.16 µM, first compound 10 µM
[33] = second compound 10 µM, first compound 0.316 µM
[34] = second compound 10 µM, first compound 1 µM
[35] = second compound 10 µM, first compound 3.16 µM
[36] = second compound 10 µM, first compound 10 µM
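Further: spheroids exposed to drugs for 7 days.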
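Wherever viability, T/C is given: 100% = DMSO vehicle treated spheroids.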

CC[C@@]1(O)C(=O)OCc2c1cc1n(c2=O)Cc2cc3c(CN(C)C)c(O)ccc3nc2-1 + Cc1cccc(N(C)C(=O)C2C(O)CCN2c2nc(C)cc(C(F)(F)F)c2C#N)c1
IC50 (second compound 0.0316 µM): 19.1 nM | IC50 (second compound 0.1 µM): 19.1 nM | IC50 (second compound 0.316 µM): 20.1 nM | IC50 (second compound 1 µM): 11.2 nM | IC50 (second compound 3.16 µM): 18.3 nM | IC50 (second compound 10 µM): 21.1 nM | viability, T/C (second compound 0.0316 µM, first compound 0.000316 µM): 80.5% | viability, T/C (second compound 0.0316 µM, first compound 0.001 µM): 94% | viability, T/C (second compound 0.0316 µM, first compound 0.00316 µM): 110% | viability, T/C (second compound 0.0316 µM, first compound 0.01 µM): 73% | viability, T/C [1]: 30.9% | viability, T/C [2]: 8.8% | viability, T/C (second compound 0.1 µM, first compound 0.000316 µM): 113% | viability, T/C (second compound 0.1 µM, first compound 0.001 µM): 78.6% | viability, T/C (second compound 0.1 µM, first compound 0.00316 µM): 87% | viability, T/C (second compound 0.1 µM, first compound 0.01 µM): 78% | viability, T/C [3]: 28.5% | viability, T/C [4]: 9.63% | viability, T/C (second compound 0.316 µM, first compound 0.000316 µM): 83.4% | viability, T/C (second compound 0.316 µM, first compound 0.001 µM): 106% | viability, T/C (second compound 0.316 µM, first compound 0.00316 µM): 94.8% | viability, T/C (second compound 0.316 µM, first compound 0.01 µM): 82% | viability, T/C [5]: 29.2% | viability, T/C [6]: 12.1% | viability, T/C (second compound 1 µM, first compound 0.000316 µM): 108% | viability, T/C (second compound 1 µM, first compound 0.001 µM): 71.3% | viability, T/C (second compound 1 µM, first compound 0.00316 µM): 79.3% | viability, T/C (second compound 1 µM, first compound 0.01 µM): 57.5% | viability, T/C [7]: 26.9% | viability, T/C [8]: 9.85% | viability, T/C (second compound 3.16 µM, first compound 0.000316 µM): 96.1% | viability, T/C (second compound 3.16 µM, first compound 0.001 µM): 98.7% | viability, T/C (second compound 3.16 µM, first compound 0.00316 µM): 77% | viability, T/C (second compound 3.16 µM, first compound 0.01 µM): 71% | viability, T/C [9]: 33.4% | viability, T/C [10]: 10.7% | viability, T/C (second compound 10 µM, first compound 0.000316 µM): 113% | viability, T/C (second compound 10 µM, first compound 0.001 µM): 99.6% | viability, T/C (second compound 10 µM, first compound 0.00316 µM): 107% | viability, T/C (second compound 10 µM, first compound 0.01 µM): 81.8% | viability, T/C [11]: 32.7% | viability, T/C [12]: 10.4%

COc1cc(C2c3cc4c(cc3C(OC3OC5COC(C)OC5C(O)C3O)C3COC(=O)C23)OCO4)cc(OC)c1O (stereo unspecified) + Cc1cccc(N(C)C(=O)C2C(O)CCN2c2nc(C)cc(C(F)(F)F)c2C#N)c1
IC50 (second compound 0.0316 µM): 183 nM | IC50 (second compound 0.1 µM): 164 nM | IC50 (second compound 0.316 µM): 250 nM | IC50 (second compound 1 µM): 207 nM | IC50 (second compound 3.16 µM): 388 nM | IC50 (second compound 10 µM): 1260 nM | viability, T/C [1]: 76.3% | viability, T/C [2]: 55.2% | viability, T/C [13]: 42.6% | viability, T/C [14]: 32.4% | viability, T/C [15]: 14.2% | viability, T/C [16]: 6.56% | viability, T/C [3]: 77.8% | viability, T/C [4]: 47.9% | viability, T/C [17]: 44.9% | viability, T/C [18]: 32.4% | viability, T/C [19]: 10.9% | viability, T/C [20]: 5.27% | viability, T/C [5]: 79.7% | viability, T/C [6]: 63.1% | viability, T/C [21]: 34.4% | viability, T/C [22]: 49.7% | viability, T/C [23]: 12.9% | viability, T/C [24]: 8.08% | viability, T/C [7]: 89.2% | viability, T/C [8]: 49.1% | viability, T/C [25]: 47.2% | viability, T/C [26]: 35.3% | viability, T/C [27]: 13.5% | viability, T/C [28]: 5.19% | viability, T/C [9]: 72.5% | viability, T/C [10]: 64.5% | viability, T/C [29]: 56.8% | viability, T/C [30]: 27.4% | viability, T/C [31]: 14.1% | viability, T/C [32]: 5.31% | viability, T/C [11]: 67.5% | viability, T/C [12]: 45.3% | viability, T/C [33]: 63.3% | viability, T/C [34]: 58.7% | viability, T/C [35]: 14.8% | viability, T/C [36]: 6.96%

COc1cccc2c1C(=O)c1c(O)c3c(c(O)c1C2=O)CC(O)(C(=O)CO)CC3OC1CC(N)C(O)C(C)O1 (stereo unspecified) + Cc1cccc(N(C)C(=O)C2C(O)CCN2c2nc(C)cc(C(F)(F)F)c2C#N)c1
IC50 (second compound 0.0316 µM): < 31.6 nM | IC50 (second compound 0.1 µM): < 31.6 nM | IC50 (second compound 0.316 µM): < 31.6 nM | IC50 (second compound 1 µM): < 31.6 nM | IC50 (second compound 3.16 µM): < 31.6 nM | IC50 (second compound 10 µM): < 31.6 nM | viability, T/C [1]: 31.8% | viability, T/C [2]: 10.5% | viability, T/C [13]: 2.24% | viability, T/C [14]: 1.98% | viability, T/C [15]: 2.99% | viability, T/C [16]: 0.53% | viability, T/C [3]: 26.8% | viability, T/C [4]: 6.95% | viability, T/C [17]: 3.98% | viability, T/C [18]: 0.54% | viability, T/C [19]: 1.3% | viability, T/C [20]: 1.07% | viability, T/C [5]: 22.5% | viability, T/C [6]: 7.12% | viability, T/C [21]: 3.03% | viability, T/C [22]: 2.42% | viability, T/C [23]: 1.56% | viability, T/C [24]: 0.77% | viability, T/C [7]: 47.9% | viability, T/C [8]: 7.31% | viability, T/C [25]: 1.73% | viability, T/C [26]: 2.31% | viability, T/C [27]: 1.01% | viability, T/C [28]: 0.51% | viability, T/C [9]: 22.8% | viability, T/C [10]: 7.88% | viability, T/C [29]: 1.7% | viability, T/C [30]: 1.41% | viability, T/C [31]: 1.39% | viability, T/C [32]: 0.69% | viability, T/C [11]: 33.1% | viability, T/C [12]: 8.28% | viability, T/C [33]: 2.08% | viability, T/C [34]: 1.32% | viability, T/C [35]: 0.67% | viability, T/C [36]: 0.65%
